According to article PMC9965614, “Computer-Aided Virtual Screening and In Vitro Validation of Biomimetic Tyrosinase Inhibitory Peptides from Abalone Peptidome” (International Journal of Molecular Sciences, 2023):
Entries after “also recorded” stand apart in the source; their conditions may differ. Where a SMILES comes first, the peptide text is derived from it.

Assays:
[1] = system: tyrosinase; conditions: RF machine learning model, 425 sequence features; cited from earlier work
Source text: (§1) Table 1 Abalone predicted TIPs by KNN and RF-based predictors and the predicted antioxidant scores by AnOxPePred 1.0 program. | column: Predicted Anti-Tyrosinase Probability / RF Predictor || Previously, our research team proposed the in-house machine learning-based anti-tyrosinase prediction tool, which provides thousands of potential peptides. The probability scores of all 1079 peptides from KNN-based and RF-based models can be found in the supplementary file of the previous article by Kongsompong et al.. The KNN and RF predictors were trained and tested against 133 peptides with known anti-tyrosinase properties with 97% and 99% accuracy. The predictions of both models were based on the numeric matrix of 425 features calculated from amino acid composition (20 featur ...

[2] = system: B16F10 melanoma cells; test: Melanin content assay in UV-induced B16F10 cells; assay type: cell-based, murine; conditions: for inhibition of melanin content: 70 μM peptide, UVA/UVB-induced B16F10 cells, triplicate
Experimental: Cellular melanin content was measured using a modified method by Jegal, et al.. B16F10 cells were seeded at 5 × 10^5 cells/mL in 24-well plates. […] After that, the cells in each well were washed and replaced by PBS. The UV stimulation process was performed by the exposure to UVA (314-400 nm, 3.0 W) and UVB (280-315 nm, 13.6 W) for 22 s. Then, PBS was replaced with media and further incubated for 24 h. The UV-stimulated cells were then trypsinized and centrifuged at 1500 rpm for 5 min. The cell pellet was then dissolved in 2 M NaOH at 60 °C for 1 h to solubilize the melanin. The melanin content was estimated by measuring the absorbance at 405 nm. The melanin content was calculated with the following equation: % Melanin content=(S)/(C)×100, where, S is the OD405 of sample and C represents the OD405 of control. All experiments were performed in triplicate.

[3] = molecular target: T1, cellular tyrosinase (Mus musculus, UniProt P11344); test: Intracellular (cellular) tyrosinase activity assay in UV-induced B16F10 cells; assay type: cell-based, murine; conditions: 70 μM peptide, UVA/UVB-induced B16F10 cells, triplicate
T1 construct: the harvested cells were lysed in cell extraction buffer; endogenous in cells; host or cells: B16F10 murine melanoma cells, UVA/UVB-induced
T1 sequence (P11344 19-533): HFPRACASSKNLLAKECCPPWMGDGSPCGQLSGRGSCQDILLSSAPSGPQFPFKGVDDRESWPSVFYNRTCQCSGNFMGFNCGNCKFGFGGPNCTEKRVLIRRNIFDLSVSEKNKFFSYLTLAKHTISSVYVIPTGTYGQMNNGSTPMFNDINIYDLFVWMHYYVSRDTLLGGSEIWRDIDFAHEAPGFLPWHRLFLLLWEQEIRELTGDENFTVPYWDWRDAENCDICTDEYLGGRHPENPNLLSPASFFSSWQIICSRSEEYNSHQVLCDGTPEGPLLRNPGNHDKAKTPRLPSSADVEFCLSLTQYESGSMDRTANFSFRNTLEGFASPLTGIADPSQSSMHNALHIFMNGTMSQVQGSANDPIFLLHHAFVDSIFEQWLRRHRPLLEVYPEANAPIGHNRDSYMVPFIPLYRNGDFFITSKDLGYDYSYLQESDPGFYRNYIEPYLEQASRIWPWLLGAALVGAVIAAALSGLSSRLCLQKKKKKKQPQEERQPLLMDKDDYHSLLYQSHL
Experimental: Tyrosinase activity was measured based on Dopa oxidase activity by estimating the dopachrome production according to the method by Qiao et al., 2012 [54], with some modifications. B16F10 cells were seeded at 5 × 10^6 cells/mL in 24-well plates. […] Each well was then washed and replaced with PBS 600 μL and induced with UVA (314-400 nm, 3.0 W) and UVB (280-315 nm, 13.6 W) using OSRAM (Ultra-Vitalux, Germany) for 22 s (0.32 J/cm^2). After that, the cells were incubated with medium 600 μL/well for a further 24 h. Then, the cells were trypsinized and the harvested cells were lysed in cell extraction buffer. After normalized protein concentration, 10 μL of each lysate supernatant was aliquoted into a 96-well plate and shaking incubated in dark conditions with 1 mM L-DOPA 90 μL in PBS at 37 °C at 280 rpm for 10 min. The absorbance was measured at 475 nm and all experiments were performed in triplicate to determine the IC50 of the samples. The cellular tyrosinase inhibitory activity was calculated with the following equation: % Cellular tyrosinase inhibition=[(C)-(S)/(C)]×100, where, C are defined as in the previous section.

[4] = system: tyrosinase; conditions: KNN machine learning model, 425 sequence features; cited from earlier work
Source text: as §1, with “/ KNN” for “/ RF”

[5] = molecular target: mushroom tyrosinase (Agaricus bisporus, UniProt C7FF04); test: Mushroom tyrosinase activity assay (L-DOPA oxidation, diphenolase); assay type: biochemical; conditions: L-DOPA substrate, up to 500 μM
Chain of mushroom tyrosinase (C7FF04 1-392): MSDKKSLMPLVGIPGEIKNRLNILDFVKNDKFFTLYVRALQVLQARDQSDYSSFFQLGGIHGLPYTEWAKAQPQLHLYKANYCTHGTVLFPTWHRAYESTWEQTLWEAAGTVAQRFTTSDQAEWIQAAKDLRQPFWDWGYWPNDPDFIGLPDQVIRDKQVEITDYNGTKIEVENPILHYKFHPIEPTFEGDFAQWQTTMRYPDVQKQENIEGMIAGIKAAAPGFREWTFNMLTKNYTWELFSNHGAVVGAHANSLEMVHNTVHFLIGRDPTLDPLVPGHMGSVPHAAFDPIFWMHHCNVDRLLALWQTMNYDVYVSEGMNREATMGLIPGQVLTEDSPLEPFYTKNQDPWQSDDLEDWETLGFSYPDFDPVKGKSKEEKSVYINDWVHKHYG
Chain of mushroom tyrosinase (G1K3P4 1-150 partner): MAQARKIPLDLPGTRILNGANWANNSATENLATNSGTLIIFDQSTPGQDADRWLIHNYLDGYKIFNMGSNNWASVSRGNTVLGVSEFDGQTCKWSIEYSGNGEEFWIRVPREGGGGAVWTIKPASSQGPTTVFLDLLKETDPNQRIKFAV
Experimental: The inhibitory effect on mushroom tyrosinase was determined spectrophotometrically via L-DOPA oxidation. The reaction mixture consisted of 20 μL of hdTIPs, 140 μL of 100 mM sodium phosphate buffer (pH6.8) and 40 μL of 200 units/mL mushroom tyrosinase (EC 1.14.18.1; Sigma, Saint Louis, USA) placed in a 96-well microplate, then incubated for 10 min. After that, 20 μL of 5mM L-DOPA were mixed into each well over 20 min. Furthermore, the amount of dopachrome produced absorbance was measured at 475 nm. In addition, KA was used as the positive control at the same concentrations and conditions to hdTIPs. This method was modified from Kim et al..
The mushroom tyrosinase inhibitory activity was calculated with the following equation: % Mushroom tyrosinase inhibition=[(C)−(S)/(C)]×100, where, C represents the OD475 of control and S is the OD475 of sample. All experiments were performed in triplicate to determine the IC50 of the samples.

[6] = system: reactive oxygen species (ROS) level in B16F10 cells; test: ROS level in B16F10 cells after UV exposure (assay kit); assay type: cell-based, murine; conditions: 70 μM, UV-exposed B16F10 cells, compared to untreated control group
Experimental: (§2) To determine the antioxidant activity, the centrifugation precipitate from Section 4.6 was dissolved in 1 mL of 1 M NaOH containing 10% DMSO at 80 °C for 1 h. Various assay kits, all from Beijing Solarbio Science & Technology Co., Ltd., Beijing, China, were used to measure the quantity of reduced reactive oxygen species (ROS) and the activity of superoxide dismutase (SOD), catalase (CAT), and glutathione peroxidase (GPx) according to the methods by Hu et al..

[7] = system: superoxide dismutase (SOD); test: Antioxidative enzyme activity, superoxide dismutase (assay kit); assay type: cell-based, murine; conditions: 70 μM, UV-exposed B16F10 cells
Experimental: as §2

[8] = system: catalase (CAT); test: Antioxidative enzyme activity, catalase (assay kit); assay type: cell-based, murine; conditions: 70 μM, UV-exposed B16F10 cells
Experimental: as §2

[9] = system: B16F10 melanoma cells; test: Cell viability assay (MTT assay); assay type: cell-based, murine; conditions: 0–1000 μg/mL, 24 h
Experimental: The number of viable cells was determined by the ability of mitochondria to convert MTT to formazan dye. The quantity of formazan formed is proportional to the number of viable cells present and can be measured spectrophotometrically. The method for MTT assay in this study was modified from Zaidi et al.. […] After 24 h incubation, 1 mg/mL of MTT (Invitrogen, Eugene, USA) solution was replaced prior to incubation at 37 °C for 3 h. The formazan precipitates were dissolved by 100 μL of dimethyl sulfoxide (DMSO) and the concentrations were measured at 570 nm in a microplate reader (Synergy H1, BioTek, Santa Clara USA). Cell viability was calculated using the following formula: cell viability (%) = (Asample/Acontrol) × 100, where Asample and Acontrol are the absorbances from the mixture with or without the addition of test sample, respectively.

Structure (SMILES)	Predicted Anti-Tyrosinase Probability RF Predictor [1]	inhibition of melanin content [2]	inhibition of cellular tyrosinase [3]	Predicted Anti-Tyrosinase Probability KNN Predictor [4]	effect on relative percentage of ROS in melanoma cells [6]	also measured
CC[C@H](C)[C@H](NC(=O)[C@@H](N)CC(N)=O)C(=O)N[C@@H](CS)C(=O)N[C@@H](CCC(=O)O)C(=O)N[C@@H](CS)C(=O)N[C@@H](CCSC)C(=O)N[C@@H](CCCCN)C(=O)O [KNN1] (H-NICECMK-OH; N-terminus and C-terminus assumed)	0.39	unable to inhibit; also recorded: did not inhibit	unable to inhibit	1.00	–	–
CC(C)[C@H](NC(=O)[C@H](CCCNC(=N)N)NC(=O)[C@H](Cc1ccc(O)cc1)NC(=O)[C@H](CC(N)=O)NC(=O)[C@H](CCCCN)NC(=O)[C@@H](N)CCCCN)C(=O)N[C@@H](CO)C(=O)N[C@@H](CCC(=O)O)C(=O)N[C@@H](C)C(=O)N[C@@H](Cc1ccc(O)cc1)C(=O)N[C@@H](CCCCN)C(=O)O [KNN3] (H-KKNYRVSEAYK-OH; N-terminus and C-terminus assumed)	0.32	–	–	1.00	–	–
C[C@H](NC(=O)[C@@H](N)CO)C(=O)N1CCC[C@H]1C(=O)N[C@H](C(=O)N[C@@H](Cc1ccccc1)C(=O)N[C@@H](Cc1ccccc1)C(=O)N[C@@H](CCCNC(=N)N)C(=O)O)[C@@H](C)O [RF1] (H-SAPTFFR-OH; N-terminus and C-terminus assumed)	0.63	10.69%	18.26%	0.00	significant reductive effects	inhibitory effect on mushroom tyrosinase (diphenolase activity) [5]: did not inhibit
CC(C)C[C@H](NC(=O)[C@H](CO)NC(=O)[C@H](CO)NC(=O)[C@@H](N)CC(N)=O)C(=O)N[C@@H](CCCNC(=N)N)C(=O)N[C@H](C(=O)N[C@@H](CCC(N)=O)C(=O)N[C@@H](CO)C(=O)N[C@@H](CCCNC(=N)N)C(=O)O)C(C)C [RF2] (H-NSSLRVQSR-OH; N-terminus and C-terminus assumed)	0.60	–	–	0.00	–	inhibitory effect on mushroom tyrosinase (diphenolase activity) [5]: did not show any inhibition
CC(C)[C@H](NC(=O)[C@H](CO)NC(=O)[C@H](CCCNC(=N)N)NC(=O)[C@H](CO)NC(=O)[C@H](CC(N)=O)NC(=O)[C@H](CO)NC(=O)[C@H](CCC(N)=O)NC(=O)[C@@H](N)CO)C(=O)N[C@@H](CO)C(=O)N[C@@H](CCCNC(=N)N)C(=O)O [RF3] (H-SQSNSRSVSR-OH; N-terminus and C-terminus assumed)	0.52	6.09%	5.11%	0.00	significant reductive effects	effect on SOD activity [7]: affected; effect on CAT activity [8]: affected
C[C@H](NC(=O)[C@H](CC(=O)O)NC(=O)[C@H](CO)NC(=O)[C@H](CO)NC(=O)[C@H](C)NC(=O)[C@@H](N)[C@@H](C)O)C(=O)N[C@@H](Cc1c[nH]c2ccccc12)C(=O)N[C@@H](Cc1ccc(O)cc1)C(=O)N[C@@H](CCCNC(=N)N)C(=O)O [TIP1] (H-TASSDAWYR-OH; N-terminus and C-terminus assumed)	–	–	–	–	significant reductive effects	–
CSCC[C@H](NC(=O)[C@H](Cc1ccccc1)NC(=O)[C@@H]1CCCN1C(=O)[C@H](C)NC(=O)[C@@H](N)CO)C(=O)N1CCC[C@H]1C(=O)N[C@@H](CC(=O)O)C(=O)N[C@@H](C)C(=O)N[C@@H](Cc1ccccc1)C(=O)N[C@@H](Cc1ccccc1)C(=O)N[C@@H](CCCNC(=N)N)C(=O)N[C@@H](CC(N)=O)C(=O)N[C@H](C(=O)O)C(C)C [TIP2] (H-SAPFMPDAFFRNV-OH; N-terminus and C-terminus assumed)	–	6.71%	3.32%	–	–	–
OC[C@H]1O[C@@H](Oc2ccc(O)cc2)[C@H](O)[C@@H](O)[C@@H]1O [arbutin, reference compound]	–	–	–	–	–	effect on cell proliferation of melanoma cells [9]: did not affect the cell proliferation
O=c1cc(CO)occ1O [kojic acid, reference compound]	–	–	–	–	–	inhibition at 100 µg/mL ([2]; Mus musculus, B16-F10, light or radiation study): 21.1%
